Calls of active or inactive are those of the source. No cut-off for these calls is given here.
Key:
[1] = Phototoxicity in human BPH1 cells assessed as cell survival at 200 uM incubated for 4 hrs followed by irradiation with blue light for 5 mins by MTT assay; type: cell-based, BPH-1; settings: BPH1 cells, read-out: Survival
A549 [2] = test: Increase in protoporphyrin 9 levels in human A549 cells at 200 uM after 24 hrs by fluorescence spectrometer plate reader method relative to ALA and CP94; type: functional
[3] = Dark toxicity in human BPH1 cells at 200 uM after 4 hrs by MTT assay; type: cell-based; settings: bph-1, 4 h
KB [4] = test: Phototoxicity in human KB cells assessed as cell survival at 200 uM incubated for 4 hrs followed by irradiation with blue light for 5 mins by MTT assay; type: functional; settings: light or radiation study, read-out: Survival
LNCaP [5] = test: Increase in protoporphyrin 9 levels in human LNCAP cells at 200 uM after 24 hrs by fluorescence spectrometer plate reader method; type: functional
[6] = Increase in protoporphyrin 9 levels in human BPH1 cells at 100 uM after 24 hrs by fluorescence spectrometer plate reader method relative to ALA; type: ADME, cell-based; settings: bph-1, 24 h
LNCaP [7] = test: Increase in protoporphyrin 9 levels in human LNCAP cells at 200 uM after 6 hrs by fluorescence spectrometer plate reader method; type: functional
MDA-MB-435 [8] = test: Phototoxicity in human MDA-MB-435 cells assessed as cell survival at 250 uM incubated for 4 hrs followed by irradiation with blue light for 5 mins by MTT assay; type: functional; settings: MDA-MB-435, light or radiation study, read-out: Survival
LNCaP [9] = test: Increase in protoporphyrin 9 levels in human LNCAP cells at 100 uM after 24 hrs by fluorescence spectrometer plate reader method relative to ALA; type: functional
[10] = Increase in protoporphyrin 9 levels in human BPH1 cells at 200 uM after 3 to 24 hrs by fluorescence spectrometer plate reader method; type: ADME, cell-based; settings: bph-1, 200 µM
A549 [11] = test: Increase in protoporphyrin 9 levels in human A549 cells at 100 uM after 24 hrs by fluorescence spectrometer plate reader method relative to ALA; type: functional
KB [12] = test: Increase in protoporphyrin 9 levels in human KB cells at 200 uM after 3 to 24 hrs by fluorescence spectrometer plate reader method; type: functional, cell-based
MDA-MB-435 [13] = test: Phototoxicity in human MDA-MB-435 cells assessed as cell survival incubated for 4 hrs followed by irradiation with blue light for 5 mins by MTT assay; type: functional, cell-based
HeLa [14] = test: Increase in protoporphyrin 9 levels in human HeLa cells after 5 hrs by fluorescence spectrometer plate reader method; type: functional, cell-based
A549 [15] = test: Increase in protoporphyrin 9 levels in human A549 cells at 200 uM after 24 hrs by fluorescence spectrometer plate reader method; type: functional
LNCaP [16] = test: Phototoxicity in human LNCAP cells assessed as cell survival at 200 uM incubated for 4 hrs followed by irradiation with blue light for 5 mins by MTT assay; type: functional; settings: light or radiation study, read-out: Survival
A549 [17] = test: Increase in protoporphyrin 9 levels in human A549 cells at 200 uM after 6 hrs by fluorescence spectrometer plate reader method relative to ALA and CP94; type: functional
LNCaP [18] = test: Phototoxicity in human LNCAP cells assessed as cell survival at 100 uM incubated for 4 hrs followed by irradiation with blue light for 5 mins by MTT assay; type: functional; settings: light or radiation study, read-out: Survival
MCF7 [19] = test: Dark toxicity in human MCF7 cells at 200 uM after 4 hrs by MTT assay; type: cell-based; settings: mcf7, 4 h
A549 [20] = test: Increase in protoporphyrin 9 levels in human A549 cells at 200 uM after 6 hrs by fluorescence spectrometer plate reader method; type: functional
LNCaP [21] = test: Dark toxicity in human LNCAP cells at 200 uM after 4 hrs by MTT assay; type: cell-based
A549 [22] = test: Increase in protoporphyrin 9 levels in human A549 cells at 200 uM after 3 hrs by fluorescence spectrometer plate reader method; type: functional
LNCaP [23] = test: Increase in protoporphyrin 9 levels in human LNCAP cells at 200 uM after 3 hrs by fluorescence spectrometer plate reader method; type: functional
A549 [24] = test: Dark toxicity in human A549 cells at 200 uM after 4 hrs by MTT assay; type: cell-based; settings: a549, 4 h
HeLa [25] = test: Phototoxicity in human HeLa cells assessed as cell survival incubated for 4 hrs followed by irradiation with blue light for 5 mins by MTT assay; type: functional, cell-based
KB [26] = test: Increase in protoporphyrin 9 levels in human KB cells at 100 uM after 24 hrs by fluorescence spectrometer plate reader method relative to ALA; type: functional
MCF7 [27] = test: Phototoxicity in human MCF7 cells assessed as cell survival at 100 uM incubated for 4 hrs followed by irradiation with blue light for 5 mins by MTT assay; type: functional; settings: MCF7, light or radiation study, read-out: Survival
A549 [28] = test: Phototoxicity in human A549 cells assessed as cell survival at 100 uM incubated for 4 hrs followed by irradiation with blue light for 5 mins by MTT assay; type: functional; settings: A549, light or radiation study, read-out: Survival
A549 [29] = test: Phototoxicity in human A549 cells assessed as cell survival at 200 uM incubated for 4 hrs followed by irradiation with blue light for 5 mins by MTT assay; type: functional; settings: A549, light or radiation study, read-out: Survival
[30] = Phototoxicity in human BPH1 cells assessed as cell survival at 100 uM incubated for 4 hrs followed by irradiation with blue light for 5 mins by MTT assay; type: cell-based, BPH-1; settings: read-out: Survival
A549 [31] = test: Increase in protoporphyrin 9 levels in human A549 cells at 200 uM after 3 hrs by fluorescence spectrometer plate reader method relative to ALA and CP94; type: functional
HeLa [32] = test: Phototoxicity in human HeLa cells assessed as cell survival at 250 uM incubated for 4 hrs followed by irradiation with blue light for 5 mins by MTT assay; type: functional; settings: light or radiation study, read-out: Survival
MDA-MB-435 [33] = test: Increase in protoporphyrin 9 levels in human MDA-MB-435 cells after 5 hrs by fluorescence spectrometer plate reader method; type: functional, cell-based
LNCaP [34] = test: Increase in protoporphyrin 9 levels in human LNCAP cells at 200 uM after 6 hrs in presence of CP94 by fluorescence spectrometer plate reader method; type: functional
LNCaP [35] = test: Increase in protoporphyrin 9 levels in human LNCAP cells at 200 uM after 3 hrs in presence of CP94 by fluorescence spectrometer plate reader method; type: functional
HeLa [36] = test: Phototoxicity in human HeLa cells assessed as cell survival at 250 uM incubated for 4 hrs followed by irradiation with blue light for 5 mins in presence of CP94 by MTT assay; type: functional; settings: light or radiation study, read-out: Survival
MDA-MB-435 [37] = test: Increase in protoporphyrin 9 levels in human MDA-MB-435 cells at 50 to 250 uM after 5 hrs in presence of CP94 by fluorescence spectrometer plate reader method; type: functional, cell-based
A549 [38] = test: Increase in protoporphyrin 9 levels in human A549 cells at 200 uM after 3 hrs in presence of CP94 by fluorescence spectrometer plate reader method; type: functional
LNCaP [39] = test: Phototoxicity in human LNCAP cells assessed as cell survival at 100 uM incubated for 4 hrs followed by irradiation with blue light for 5 mins in presence of CP94 by MTT assay; type: functional; settings: light or radiation study, read-out: Survival
A549 [40] = test: Phototoxicity in human A549 cells assessed as cell survival at 100 uM incubated for 4 hrs followed by irradiation with blue light for 5 mins in presence of CP94 by MTT assay; type: functional; settings: A549, light or radiation study, read-out: Survival
MDA-MB-435 [41] = test: Phototoxicity in human MDA-MB-435 cells assessed as cell survival at 250 uM incubated for 4 hrs followed by irradiation with blue light for 5 mins in presence of CP94 by MTT assay; type: functional; settings: MDA-MB-435, light or radiation study, read-out: Survival
HeLa [42] = test: Increase in protoporphyrin 9 levels in human HeLa cells at 50 to 250 uM after 5 hrs in presence of CP94 by fluorescence spectrometer plate reader method; type: functional, cell-based
LNCaP [43] = test: Increase in protoporphyrin 9 levels in human LNCAP cells at 200 uM after 24 hrs in presence of CP94 by fluorescence spectrometer plate reader method; type: functional
MCF7 [44] = test: Phototoxicity in human MCF7 cells assessed as cell survival at 100 uM incubated for 4 hrs followed by irradiation with blue light for 5 mins in presence of CP94 by MTT assay; type: functional; settings: MCF7, light or radiation study, read-out: Survival
A549 [45] = test: Increase in protoporphyrin 9 levels in human A549 cells at 200 uM after 6 hrs in presence of CP94 by fluorescence spectrometer plate reader method; type: functional
MDA-MB-435 [46] = test: Phototoxicity in human MDA-MB-435 cells assessed as cell survival incubated for 4 hrs followed by irradiation with blue light for 5 mins in presence of CP94 by MTT assay; type: functional, cell-based
HeLa [47] = test: Phototoxicity in human HeLa cells assessed as cell survival incubated for 4 hrs followed by irradiation with blue light for 5 mins in presence of CP94 by MTT assay; type: functional, cell-based
A549 [48] = test: Increase in protoporphyrin 9 levels in human A549 cells at 200 uM after 24 hrs in presence of CP94 by fluorescence spectrometer plate reader method; type: functional
[49] = Phototoxicity in human BPH1 cells assessed as cell survival at 100 uM incubated for 4 hrs followed by irradiation with blue light for 5 mins in presence of CP94 by MTT assay; type: cell-based, BPH-1; settings: read-out: Survival

SMILES: COC(=O)CCC(=O)CNC(=O)[C@H](Cc1ccccc1)NC(=O)c1c(O)c(=O)ccn1C
- viability at 4 h, 200 µM [1]: 12.4%
- Flu intensity (A549 [2]): 1.2 a.u.
- Activity [3]: Non-toxic
- viability at 200 µM (KB [4]): 7.8%
- Flu intensity (LNCaP [5]): 58.4 a.u.
- fold change (FC) [6]: 1.5
- Flu intensity (LNCaP [7]): 47.1 a.u.
- viability at 250 µM (MDA-MB-435 [8]): 11.1%
- fold change (FC) (LNCaP [9]): 4
- Activity [10]: Non-toxic
- fold change (FC) (A549 [11]): 3.1
- Activity (KB [12]): Active
- Activity (MDA-MB-435 [13]): Dose-dependent effect
- Activity (HeLa [14]): Dose-dependent effect
- Flu intensity (A549 [15]): 94.6 a.u.
- viability at 200 µM (LNCaP [16]): 13.5%
- Flu intensity (A549 [17]): 1.3 a.u.
- viability at 100 µM (LNCaP [18]): 26.3%
- Activity (MCF7 [19]): Non-toxic
- Flu intensity (A549 [20]): 52.9 a.u.
- Activity (LNCaP [21]): Non-toxic
- Flu intensity (A549 [22]): 27.7 a.u.
- Flu intensity (LNCaP [23]): 25.3 a.u.
- Activity (A549 [24]): Non-toxic
- Activity (HeLa [25]): Dose-dependent effect
- fold change (FC) (KB [26]): 2.9
- viability at 100 µM (MCF7 [27]): 21.1%
- viability at 100 µM (A549 [28]): 14.7%
- viability at 200 µM (A549 [29]): 16.3%
- viability at 4 h, 100 µM [30]: 75.1%
- Flu intensity (A549 [31]): 1.6 a.u.
- viability at 250 µM (HeLa [32]): 15.3%
- Activity (MDA-MB-435 [33]): Dose-dependent effect

SMILES: NCC(=O)CCC(=O)O [AMINOLEVULINIC ACID]
- viability at 4 h, 200 µM [1]: 70.8%
- Flu intensity (LNCaP [34]): 31.3 a.u.
- Flu intensity (LNCaP [35]): 17.3 a.u.
- Activity [3]: Non-toxic
- viability at 250 µM (HeLa [36]): 26.9%
- viability at 200 µM (KB [4]): 52.6%
- Activity (MDA-MB-435 [37]): Active
- Flu intensity (A549 [38]): 17.7 a.u.
- viability at 100 µM (LNCaP [39]): 33.1%
- viability at 100 µM (A549 [40]): 18.4%
- viability at 250 µM (MDA-MB-435 [8]): 61.4%
- viability at 250 µM (MDA-MB-435 [41]): 28.9%
- Activity (HeLa [42]): Active
- Flu intensity (LNCaP [43]): 46 a.u.
- viability at 100 µM (MCF7 [44]): 26.7%
- Flu intensity (A549 [45]): 42.1 a.u.
- viability at 200 µM (LNCaP [16]): 61.9%
- Activity (MDA-MB-435 [46]): Dose-dependent effect
- Activity (MCF7 [19]): Non-toxic
- Activity (LNCaP [21]): Non-toxic
- Activity (A549 [24]): Non-toxic
- Activity (HeLa [47]): Dose-dependent effect
- Flu intensity (A549 [48]): 77.8 a.u.
- viability at 4 h, 100 µM [49]: 81.9%
- viability at 200 µM (A549 [29]): 54.7%
- viability at 250 µM (HeLa [32]): 58.6%

— ChEMBL document CHEMBL3817770, “Design and synthesis of 5-aminolaevulinic acid/3-hydroxypyridinone conjugates for photodynamic therapy: enhancement of protoporphyrin IX production and photo-toxicity in tumor cells” (Medchemcomm, 2016)
